Assays:
apolipoprotein B mRNA [1] = experiment: ob/ob mice (Example 50): apolipoprotein B mRNA levels in liver; assay type: in vivo, mouse; conditions: liver, high fat high cholesterol diet, 50 mg/kg i.p. twice a week, six weeks
Method: (§1) Ob/ob mice receiving a high fat, high cholesterol diet (60% kcal fat supplemented with 0.15% cholesterol) were treated with one of several oligonucleotides to evaluate their effect on apolipoprotein B-related phenotypic endpoints in ob/ob mice. After overnight fasting, mice from each group were dosed intraperitoneally twice a week with 50 mg/kg of ISIS 147483 (SEQ ID NO: 79), or 147764 (SEQ ID NO: 109), or the controls ISIS 116847 (SEQ ID NO: 857), or 141923 (SEQ ID NO: 858), or saline for six weeks. At study termination and forty eight hours after the final injections, animals were sacrificed and evaluated for target mRNA levels in liver, cholesterol and triglyceride levels, liver enzyme levels, serum glucose levels, and PTEN levels.

[2] = ob/ob mice (Example 50): cholesterol, lipid, triglyceride, liver enzyme and glucose levels; assay type: in vivo, mouse; conditions: high fat high cholesterol diet, 50 mg/kg i.p. twice a week, six weeks
Method: as §1

PTEN = experiment: ob/ob mice (Example 50): PTEN levels; assay type: in vivo, mouse; conditions: high fat high cholesterol diet, 50 mg/kg i.p. twice a week, six weeks
Method: as §1

[3] = test system: mouse apolipoprotein B mRNA; experiment: Inhibition of mouse apolipoprotein B mRNA levels in primary mouse hepatocytes, real-time PCR; assay type: cell-based
Method: Primary mouse hepatocytes were prepared from CD-1 mice purchased from Charles River Labs (Wilmington, Mass.) and were routinely cultured in Hepatoyte Attachment Media (Gibco) supplemented with 10% Fetal Bovine Serum (Gibco/Life Technologies, Gaithersburg, Md.), 250 nM dexamethasone (Sigma), and 10 nM bovine insulin (Sigma). Cells were seeded into 96-well plates (Falcon-Primaria #3872) at a density of 10000 cells/well for use in RT-PCR analysis.
When cells reached 80% confluency, they were treated with oligonucleotide. For cells grown in 96-well plates, wells were washed once with 200 μL OPTI-MEM™-1 reduced-serum medium (Gibco BRL) and then treated with 130 μL of OPTI-MEM™-1 containing 3.75 μg/mL LIPOFECTIN™ (Gibco BRL) and the desired concentration of oligonucleotide. After 4-7 hours of treatment, the medium was replaced with fresh medium. Cells were harvested 16-24 hours after oligonucleotide treatment.
Quantitation of apolipoprotein B mRNA levels was determined by real-time quantitative PCR using the ABI PRISM™ 7700 Sequence Detection System (PE-Applied Biosystems, Foster City, Calif.) according to manufacturer's instructions. This is a closed-tube, non-gel-based, fluorescence detection system which allows high-throughput quantitation of polymerase chain reaction (PCR) products in real-time. As opposed to standard PCR, in which amplification products are quantitated after the PCR is completed, products in real-time quantitative PCR are quantitated as they accumulate. This is accomplished by including in the PCR reaction an oligonucleotide probe that anneals specifically between the forward and reverse PCR primers, and contains two fluorescent dyes. A reporter dye (e.g., JOE, FAM, or VIC, obtained from either Operon Technologies Inc., Alameda, Calif. or PE-Applied Biosystems, Foster City, Calif.) is attached to the 5′ end of the probe and a quencher dye (e.g., TAMRA, obtained from either Operon Technologies Inc., Alameda, Calif. or PE-Applied Biosystems, Foster City, Calif.) is attached to the 3′ end of the probe. When the probe and dyes are intact, reporter dye emission is quenched by the proximity of the 3′ quencher dye. During amplification, annealing of the probe to the target sequence creates a substrate that can be cleaved by the 5′-exonuclease activity of Taq polymerase. […] With each cycle, additional reporter dye molecules are cleaved from their respective probes, and the fluorescence intensity is monitored at regular intervals by laser optics built into the ABI PRISM™ 7700 Sequence Detection System. In each assay, a series of parallel reactions containing serial dilutions of mRNA from untreated control samples generates a standard curve that is used to quantitate the percent inhibition after antisense oligonucleotide treatment of test samples.
Probes and primers to mouse apolipoprotein B were designed to hybridize to a mouse apolipoprotein B sequence, using published sequence information (GenBank accession number M35186, incorporated herein as SEQ ID NO: 10). For mouse apolipoprotein B the PCR primers were: forward primer: CGTGGGCTCCAGCATTCTA (SEQ ID NO: 11) reverse primer: […] (SEQ ID NO: 12) and the PCR probe was: FAM-[…]-TAMRA SEQ ID NO: 13) where FAM (PE-Applied Biosystems, Foster City, Calif.) is the fluorescent reporter dye) and TAMRA (PE-Applied Biosystems, Foster City, Calif.) is the quencher dye. For mouse GAPDH the PCR primers were: forward primer: […] (SEQ ID NO: 14) reverse primer: […] (SEQ ID NO:15) and the PCR probe was: 5′ JOE-[…]-TAMRA 3′ (SEQ ID NO: 16) where JOE (PE-Applied Biosystems, Foster City, Calif.) is the fluorescent reporter dye) and TAMRA (PE-Applied Biosystems, Foster City, Calif.) is the quencher dye.
In accordance with the present invention, a series of oligonucleotides was designed to target different regions of the mouse apolipoprotein B RNA, using published sequence (GenBank accession number M35186, incorporated herein as SEQ ID NO: 10). […]

[4] = High fat fed C57BL/6 mice, 6 week timecourse: serum cholesterol, triglyceride, lipoprotein and glucose levels; assay type: in vivo, mouse; conditions: for Percent Inhibition HDL / Percent Inhibition LDL / Percent Inhibition VLDL: 20 mg/kg daily oral, negative = increase
Method: Male C57BL/6 mice (n=8) receiving a high fat diet (60% kcal fat) were evaluated over the course of 6 weeks for the effects of treatment with the antisense oligonucleotide, ISIS 147764. Control animals received saline treatment (50 mg/kg). A subset of animals received a daily oral dose (20 mg/kg) atorvastatin calcium (Lipitor®, Pfizer Inc.). All mice, except atorvastatin-treated animals, were dosed intraperitoneally every three days (twice a week), after fasting overnight, with 5, 25, 50 mg/kg ISIS 147764 (SEQ ID No: 109) or saline (50 mg/kg) for six weeks. Serum cholesterol and lipoproteins were analyzed at 0, 2 and 6 week interim timepoints. At study termination, animals were sacrificed 48 hours after the final injections and evaluated for levels of target mRNA levels in liver, cholesterol, lipoprotein, triglyceride, liver enzyme (AST and ALT) and serum glucose levels as well as body, liver, spleen and fat pad weights.
(§2) Male C57BL/6 mice (n=8) receiving a high fat diet (60% kcal fat) were evaluated over the course of 6 weeks for the effects of ISIS 147764 on serum cholesterol and triglyceride levels. Control animals received saline treatment (50 mg/kg). Mice were dosed intraperitoneally every three days (twice a week), after fasting overnight, with 5, 25, 50 mg/kg ISIS 147764 (SEQ ID No: 109) or saline (50 mg/kg) for six weeks.
Values in the table are expressed as percent inhibition and are normalized to the saline control.
In addition to serum cholesterol, at study termination, animals were sacrificed 48 hours after the final injections and evaluated for triglyceride levels.
as §2, with “lipoprotein (VLDL, LDL” for “serum cholesterol”, “HDL)” for “triglyceride”
Values in the table are expressed as percent inhibition and are normalized to the saline control. Negative values indicate an observed increase in lipoprotein levels.
as §2, with “glucose” for “cholesterol and triglyceride”
At study termination, animals were sacrificed 48 hours after the final injections and evaluated for serum glucose levels. […] Mice treated with atorvastatin at a daily oral dose of 20 mg/kg had serum glucose levels of 215 mg/dL.

[5] = High fat fed C57BL/6 mice, 6 week timecourse: serum AST and ALT levels; assay type: in vivo, mouse; conditions: daily oral dose of 20 mg/kg
Method: Male C57BL/6 mice (n=8) receiving a high fat diet (60% kcal fat) were evaluated over the course of 6 weeks for the effects of ISIS 147764 on liver enzyme (AST and ALT) levels. Increased levels of the liver enzymes ALT and AST indicate toxicity and liver damage. Control animals received saline treatment (50 mg/kg). […] AST and ALT levels were measured at 6 weeks.

[6] = High fat fed C57BL/6 mice, 6 week timecourse: body, spleen, liver and fat pad weight; assay type: in vivo, mouse; conditions: 20 mg/kg daily, six weeks, vs saline-treated controls
Method: Male C57BL/6 mice (n=8) receiving a high fat diet (60% kcal fat) were evaluated over the course of 6 weeks for the effects of ISIS 147764 on body, spleen, liver and fat pad weight. Control animals received saline treatment (50 mg/kg). […]
At study termination, animals were sacrificed 48 hours after the final injections and body, spleen, liver and fat pad weights were measured. Values are expressed as percent change in body weight or ogan weight compared to the saline-treated control animals. Negative values indicated a decrease in weight.

apolipoprotein B mRNA [7] = experiment: ApoE knockout mice (Example 28): target mRNA levels in liver; assay type: in vivo, mouse; conditions: high fat diet, 20 mg/kg daily
Description: (§3) Female ApoE knockout mice ranged in age from 5 to 7 weeks and were placed on a normal diet for 2 weeks before study initiation. ApoE knockout mice were then fed ad libitum a 60% fat diet, with 0.15% added cholesterol to induce dyslipidemia and obesity. Control animals were maintained on a high-fat diet with no added cholesterol. […]
(§4) At study termination and forty eight hours after the final injections, animals were sacrificed and evaluated for target mRNA levels in liver by RT-PCR methods verified by Northern Blot analysis, glucose levels, cholesterol and lipid levels by HPLC separation methods and triglyceride and liver enzyme levels (performed by LabCorp Preclinical Services; San Diego, Calif.).
(§5) Data are normalized to saline controls.

[8] = assay type: in vivo, mouse
Description: as §3, §4, §5

apolipoprotein B mRNA [9] = experiment: LDLr(-/-) mice dose response (Example 44): apolipoprotein B mRNA; assay type: in vivo, mouse; conditions: 20 mg/kg, six weeks
Method: LDLr(−/−) mice, purchased from Taconic (Germantown, N.Y.) were used to evaluate antisense oligonucleotides for their potential to lower apolipoprotein B mRNA or protein levels, as well as phenotypic endpoints associated with apolipoprotein B. LDLr(−/−) mice were separated into groups of males and females. LDLr(−/−) mice were dosed intraperitoneally twice a week for six weeks with either 10, 25, or 50 mg/kg of ISIS 147764 (SEQ ID NO: 109) or ISIS 270906 (SEQ ID NO: 856) which is a 4 base mismatch of ISIS 147764, or with saline, or 20 mg/kg of Atorvastatin. At study termination animals were sacrificed and evaluated for several phenotypic markers.

[10] = ApoE knockout mice, high fat diet, 20 mg/kg daily

## 116847 (antisense CTGCTAGCCTCTGGATTTGA; listed as DNA, chemistry not given here) [compound 116847]
Apolipoprotein B mRNA [1]
  mRNA % control ApoB: 77.0 % control
[2]
  Glucose: 135.5 mg/dL
  Lipoproteins CHOL: 287.5 mg/dL
  Lipoproteins TRIG: 196.5 mg/dL
  Liver Enzymes ALT: 607.5 IU/L
  Liver Enzymes AST: 343.2 IU/L
PTEN
  mRNA % control PTEN: 20.0 % control

## 147483 (ATGTCAATGCCACATGTCCA; phosphorothioate, 2'-MOE wings, chemistry not fully specified) [compound 147483]
[3]; Table 4, 50 nM
  Percent Inhibition 50 nM: 56%
[3]; Table 4, 150 nM
  Percent Inhibition 150 nM: 88%
[3]; Table 4, 300 nM
  Percent Inhibition 300 nM: 89%
Apolipoprotein B mRNA [1]
  mRNA % control ApoB: 25.2 % control
[2]
  Glucose: 213.2 mg/dL
  Lipoproteins CHOL: 250.0 mg/dL
  Lipoproteins TRIG: 99.8 mg/dL
  Liver Enzymes ALT: 941.7 IU/L
  Liver Enzymes AST: 790.2 IU/L
PTEN
  mRNA % control PTEN: 143.2 % control

## CC(C)c1c(C(=O)Nc2ccccc2)c(-c2ccccc2)c(-c2ccc(F)cc2)n1CC[C@@H](O)C[C@@H](O)CC(=O)O [atorvastatin, atorvastatin calcium, reference compound]
[4]; 0 weeks
  Percent Inhibition HDL: 0%
  Percent Inhibition LDL: 0%
  Percent Inhibition VLDL: 0%
[4]; 2 weeks
  Percent Inhibition HDL: 15%
  Percent Inhibition LDL: 10%
  Percent Inhibition VLDL: 15%
[4]; 6 weeks
  Percent Inhibition HDL: 20%
  Percent Inhibition LDL: −10%
  Percent Inhibition VLDL: −5%
[4]; daily oral dose of 20 mg/kg
  serum glucose levels: 215 mg/dL
[4]; oral dose of 20 mg/kg, study termination
  decrease in serum cholesterol: 20%
[5]
  AST levels: 85 IU/L
  AST levels (printed in the ALT paragraph): 40 IU/L
[6]
  Percent Change Fat (fat pad weight): 7%
  Percent Change Liver weight: 15%
  Percent Change Spleen weight: 10%
  Percent Change Total Body Wt.: 1%
Apolipoprotein B mRNA [7]
  mRNA Percent Inhibition: 10%
[8]; [10]
  Cholesterol Levels: 938 mg/dL
  Glucose Levels: 162 mg/dL
  Lipoprotein Levels HDL: 42 mg/dL
  Lipoprotein Levels LDL: 250 mg/dL
  Lipoprotein Levels VLDL: 653 mg/dL
[8]; mouse, in vivo, 20 mg/kg
  Liver Enzyme Levels ALT: 76 IU/L
  Liver Enzyme Levels AST: 75 IU/L
Apolipoprotein B mRNA [9]; female LDLr(-/-) mice
  apolipoprotein B mRNA % control: 109.0 % control
Apolipoprotein B mRNA [9]; male LDLr(-/-) mice
  apolipoprotein B mRNA % control: 110.9 % control

Reference: patent US7803930B2, “Antisense modulation of apolipoprotein B-expression” (Isis Pharmaceuticals, Inc., priority 2002, dated 2010)
